“And” between values parts separate entries of the source, which are not always exact repeats. Equal entries are not always repeated. Where two headings read alike, the source gives them in different places.
System: neonatal rat ventricular cardiomyocytes (NVCM)
Assay: Protection against DAU-induced cytotoxicity (LDH release) in NVCM
Assay type: cell-based
Parameters: key to Suppl.Fig.3 DAU-induced cytotoxicity (LDH release) in NVCM, mean of independent replicates / LDH release (DAU-induced cytotoxicity), mean of independent replicates: % of total LDH activity
Conditions: for minimal effective concentration: protection against DAU 1.2 µM, n=4, read-out: LEC = lowest effective concentration; for LDH release: independent replicates; for LDH release (protection against DAU), mean of independent replicates: Suppl.Fig.8a
Summary of the method: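 Primary neonatal Wistar rat cardiomyocytes in serum- and pyruvate-free DMEM/F12 were pretreated with compound 3 h, then co-incubated 3 h with DAU (1.2 µM), or without DAU for inherent toxicity, then given a 48 h drug-free follow-up. Medium LDH activity (NAD+ reduction at 340 nm) expressed as % of total LDH.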

| Structure (SMILES) | LDH release, mean (compound 0.01 µM + DAU 1.2 µM) | Suppl.Fig.3 DAU-induced cytotoxicity (LDH release) in NVCM, mean of independent replicates (compound 0.01 µM + DAU 1.2 µM) | LDH release (compound 0.01 µM + DAU 1.2 µM) | LDH release, mean (compound 0.1 µM + DAU 1.2 µM) | Suppl.Fig.3 DAU-induced cytotoxicity (LDH release) in NVCM, mean of independent replicates (compound 0.1 µM + DAU 1.2 µM) | LDH release (compound 0.1 µM + DAU 1.2 µM) | LDH release, mean (compound 1 µM + DAU 1.2 µM) | Suppl.Fig.3 DAU-induced cytotoxicity (LDH release) in NVCM, mean of independent replicates (compound 1 µM + DAU 1.2 µM) | LDH release (compound 1 µM + DAU 1.2 µM) | LDH release, mean (compound 10 µM + DAU 1.2 µM) | Suppl.Fig.3 DAU-induced cytotoxicity (LDH release) in NVCM, mean of independent replicates (compound 10 µM + DAU 1.2 µM) | LDH release (compound 10 µM + DAU 1.2 µM) | further results |
| --- | --- | --- | --- | --- | --- | --- | --- | --- | --- | --- | --- | --- | --- |
| CCCc1cc(=O)oc2c(C(=O)N3CCCc4ccccc43)c(OCCO)ccc12 [5c] | 43.3429 % of total LDH | 43.3429 | 38.8043 % of total LDH and 44.6863 % of total LDH and 52.1182 % of total LDH and 37.7626 % of total LDH | 37.9008 % of total LDH | 37.9008 | 31.4509 % of total LDH and 46.2465 % of total LDH and 39.969 % of total LDH and 33.9368 % of total LDH | 32.4872 % of total LDH | 32.4872 | 27.3874 % of total LDH and 32.0086 % of total LDH and 42.6349 % of total LDH and 27.9179 % of total LDH | 26.8851 % of total LDH | 26.8851 | 22.9974 % of total LDH and 24.3605 % of total LDH and 29.85 % of total LDH and 30.3325 % of total LDH | concentration providing significant cardioprotection (NVCM, DAU 1.2 µM): ≥ 0.1 µM; minimal effective concentration (Rattus norvegicus, Cardiomyocyte, NVCM): 0.1 µM; LDH release, mean (compound 30 µM + DAU 1.2 µM): 27.5762 % of total LDH; Suppl.Fig.3 DAU-induced cytotoxicity (LDH release) in NVCM, mean of independent replicates (compound 30 µM + DAU 1.2 µM): 27.5762; LDH release (compound 30 µM + DAU 1.2 µM): 24.4062 % of total LDH and 28.0233 % of total LDH and 28.184 % of total LDH and 29.6914 % of total LDH; LDH release, mean (compound 100 µM + DAU 1.2 µM): 31.1384 % of total LDH; Suppl.Fig.3 DAU-induced cytotoxicity (LDH release) in NVCM, mean of independent replicates (compound 100 µM + DAU 1.2 µM): 31.1384; LDH release (compound 100 µM + DAU 1.2 µM): 22.9096 % of total LDH and 39.1124 % of total LDH and 31.4385 % of total LDH and 31.093 % of total LDH |
| C[C@@H](CN1CC(=O)NC(=O)C1)N1CC(=O)NC(=O)C1 [dexrazoxane] |  |  |  |  |  |  |  |  |  |  |  |  | concentration needed for similar extent of protection, relative to topobexin (9) (NVCM): at least 10 ×; LDH release (protection against DAU), mean of independent replicates (compound 0.1 µM + DAU 1.2 µM, NVCM): 48.0486; LDH release (protection against DAU), mean of independent replicates (compound 1 µM + DAU 1.2 µM, NVCM): 43.2962; LDH release (protection against DAU), mean of independent replicates (compound 10 µM + DAU 1.2 µM, NVCM): 41.8711; LDH release (protection against DAU), mean of independent replicates (compound 100 µM + DAU 1.2 µM, NVCM): 36.8821 |
| CCCc1cc(=O)oc2c(C(=O)N3CCCc4ccccc43)c(OC)cc(OC)c12 [BNS-22] | 38.9374 % of total LDH | 38.9374 | 36.8796 % of total LDH and 42.975 % of total LDH and 39.3894 % of total LDH and 36.5057 % of total LDH | 33.1153 % of total LDH | 33.1153 | 30.1987 % of total LDH and 38.5314 % of total LDH and 34.1236 % of total LDH and 29.6074 % of total LDH | 28.1702 % of total LDH | 28.1702 | 24.6443 % of total LDH and 29.0885 % of total LDH and 32.0729 % of total LDH and 26.875 % of total LDH | 23.9768 % of total LDH | 23.9768 | 25.2929 % of total LDH and 19.0756 % of total LDH and 25.4172 % of total LDH and 26.1213 % of total LDH | minimal effective concentration (NVCM): 1 µM; LDH release, mean (compound 3 µM + DAU 1.2 µM): 24.9748 % of total LDH; Suppl.Fig.3 DAU-induced cytotoxicity (LDH release) in NVCM, mean of independent replicates (compound 3 µM + DAU 1.2 µM): 24.9748; LDH release (compound 3 µM + DAU 1.2 µM): 26.7887 % of total LDH and 18.8271 % of total LDH and 27.1872 % of total LDH and 27.096 % of total LDH |

Reference: PMC12116762, “Topobexin targets the Topoisomerase II ATPase domain for beta isoform-selective inhibition and anthracycline cardioprotection” (Nature Communications, 2025)
